From patent publication US7375058B2, “Herbicidal mixtures based on 3-phenyluracils” (priority 2002, dated 2008) come the findings set out here.

Structures can show the parent of a compound that is named as a salt.

The test system of one experiment is GALAP. The experiment is described as follows: Greenhouse post-emergence herbicidal action against GALAP. The class given is in vivo, Galium aparine. From the text:
(§1) For the post-emergence treatment, the test plants were first grown to a height of 3 to 20 cm, depending on the plant habit, and only then treated. Here, the herbicidal compositions were suspended or emulsified in water as distribution medium and sprayed using finely distributing nozzles
(§2) The respective components A and B and/or C were formulated as 10% by weight strength emulsion concentrate and introduced to the spray liquor with the amount of solvent system used for applying the active compound. In the examples, the solvent used was water.
(§3) The test period extended over 21 days. During this time, the plants were tended, and their response to the treatments with active compound was evaluated.
(§4) The evaluation for the damage caused by the chemical compositions was carried out using a scale from 0 to 100%, compared to the untreated control plants. Here, 0 means no damage and 100 means complete destruction of the plants.
(§5) In the examples below, the value E which is to be expected if the activity of the individual compounds is just additive was calculated using the method of S. R. Colby (1967) “Calculating synergistic and antagonistic responses of herbicide combinations”, Weeds 15, p. 22 ff. E=X+Y−([…]) where • X=effect in percent using active compound A at an application rate a; • Y=effect in percent using active compound B at an application rate b; • E=expected effect (in %) of A+B at application rates a+b.
(§6) If the observed effect is higher than the value E calculated according to Colby, a synergistic effect is present.

For another experiment, the system named is ABUTH. As to the kind of experiment: Greenhouse post-emergence herbicidal action against ABUTH. The experiment is classed as in vivo, Abutilon theophrasti.
From the text: as §1, §2, §3, §4, §5, §6

A further experiment deals with ALOMY. The experiment is described as follows: Greenhouse post-emergence herbicidal action against ALOMY. The class given is in vivo, Alopecurus myosuroides. To be noted: 21 days.
From the text: as §1, §2, §3, §4, §5, §6

Another experiment has as its system BIDPI. As to the kind of experiment: Greenhouse post-emergence herbicidal action against BIDPI. The class given is in vivo, Bidens pilosa.
From the text: as §1, §2, §3, §4, §5, §6

The next experiment has as its system BRAPL. The experiment is described as follows: Greenhouse post-emergence herbicidal action against BRAPL. The experiment is classed as in vivo, Brachiaria plantaginea.
From the text: as §1, §2, §3, §4, §5, §6

The test system of another experiment is POLPE. The experiment is described as follows: Greenhouse post-emergence herbicidal action against POLPE. The experiment is classed as in vivo, Polygonum persicaria. To be noted: 21 days.
From the text: as §1, §2, §3, §4, §5, §6

The test system of the next experiment is AVEFA. The experiment is described as follows: Greenhouse post-emergence herbicidal action against AVEFA. The class given is in vivo, Avena fatua.
From the text: as §1, §2, §3, §4, §5, §6

A further experiment has as its system ECHCG. As to the kind of experiment: Greenhouse post-emergence herbicidal action against ECHCG. The class given is in vivo, Echinochloa crus-galli.
From the text: as §1, §2, §3, §4, §5, §6

The next experiment relates to SETFA. As to the kind of experiment: Greenhouse post-emergence herbicidal action against SETFA. The experiment is classed as in vivo, Setaria faberii.
From the text: as §1, §2, §3, §4, §5, §6

Setting [1] is: 21 days, application rate g/ha: I.7 1.95, b3.2 62.5.
Where [2] appears, read: 21 days, application rate g/ha: I.7 3.91, b3.2 125.
Where [3] appears, read: I.1 1.95 g/ha and/or b10.1 125 g/ha.
[4] abbreviates: I.1 3.91 g/ha and/or b10.1 250 g/ha.
The mark [5] stands for this setting: I.14 0.49 g/ha and/or b10.3 62.5 g/ha.
The mark [6] stands for this setting: I.14 0.98 g/ha and/or b10.3 125 g/ha.
Where [7] appears, read: I.14 0.49 g/ha and/or b11.1 62.5 g/ha.
The mark [8] stands for this setting: I.14 0.98 g/ha and/or b11.1 125 g/ha.
The mark [9] stands for this setting: I.14 0.49 g/ha and/or b13.3 62.5 g/ha.
The mark [10] stands for this setting: I.14 0.98 g/ha and/or b13.3 125 g/ha.

Take `CCO/N=C(\CC)C1=C(O)CC(c2c(C)cc(C)cc2C)CC1=O` (stereo not drawn) [b1.1, tralkoxydim, reference compound]: the “Herbicidal action against GALAP found” value amounted to 0% in the experiment with GALAP (21 days, application rate g/ha: I.1 1.95, b1.1 62.5) and 0% in the experiment on GALAP (21 days, application rate g/ha: I.1 3.91, b1.1 125).

`CCCC(=NOCC(C)Oc1ccc(Cl)cc1)C1=C(O)CC(C2CCCSC2)CC1=O` (stereo not drawn) [b1.2, profoxydim, reference compound]: the “Herbicidal action against ABUTH found” value in the experiment with ABUTH (21 days, application rate g/ha: I.1 1.95, b1.2 31.25) is reported as 30%; in the experiment with ABUTH (21 days, application rate g/ha: I.1 3.91, b1.2 62.5), 40%.

For `COCc1cnc(C2=NC(C)(C(C)C)C(=O)N2)c(C(=O)O)c1` (stereo not drawn) [b2.1, imazamox, reference compound], the “Herbicidal action against ALOMY found” value with ALOMY (application rate g/ha: I.8 0.49, b2.1 7.81) was 40%; in the experiment on ALOMY (application rate g/ha: I.8 0.98, b2.1 15.63) it was 70%.

As for `CCc1cnc(C2=NC(C)(C(C)C)C(=O)N2)c(C(=O)O)c1` (stereo not drawn) [b2.2, imazethapyr, reference compound], the “Herbicidal action against BIDPI found” value in the experiment with BIDPI (21 days, application rate g/ha: I.8 0.49, b2.2 7.81) was 20%; with BIDPI (21 days, application rate g/ha: I.8 0.98, b2.2 15.63), 20%.

As to `COc1cc(OC)nc(NC(=O)NS(=O)(=O)c2ncccc2C(=O)N(C)C)n1` [b2.3, nicosulfuron, reference compound], the “Herbicidal action against ALOMY found” value came out at 50% in the experiment with ALOMY (application rate g/ha: I.14 0.49, b2.3 0.98) and 60% with ALOMY (application rate g/ha: I.14 0.98, b2.3 1.95). In addition, the “Herbicidal action against BRAPL found” value in the experiment with BRAPL (21 days, application rate g/ha: I.14 0.49, b2.3 0.98) is 70%; in the experiment on BRAPL (21 days, application rate g/ha: I.14 0.98, b2.3 1.95), 70%.

For the compound `CCNc1nc(Cl)nc(NC(C)C)n1` [b3.1, atrazine, reference compound], the “Herbicidal action against POLPE found” value was determined as 50% in the experiment with POLPE (application rate g/ha: I.7 1.95, b3.1 62.5) and 60% in the experiment on POLPE (application rate g/ha: I.7 3.91, b3.1 125). For the same compound, the “Herbicidal action against AVEFA found” value in the experiment on AVEFA (21 days, application rate g/ha: I.7 1.95, b3.1 62.5) turned out to be 0%; in the experiment with AVEFA (21 days, application rate g/ha: I.7 3.91, b3.1 125), 0%.

In the case of `CN(C)C(=O)Nc1ccc(Cl)c(Cl)c1` [b3.2, diuron, reference compound], the entries for the “Herbicidal action against ECHCG found” value in the experiment on ECHCG (setting [1]) and in the experiment on ECHCG (setting [2]) were 15% and 20%, respectively. Besides, the “Herbicidal action against BRAPL found” value is 25% in the experiment with BRAPL (setting [1]) and 60% in the experiment on BRAPL (setting [2]).

Regarding `CC(C)c1ccc(NC(=O)N(C)C)cc1` [b3.3, isoproturon, reference compound], the “Herbicidal action against ABUTH found” value in the experiment on ABUTH (21 days, application rate g/ha: I.7 0.98, b3.3 31.25) turned out to be 0%; in the experiment with ABUTH (21 days, application rate g/ha: I.7 1.95, b3.3 62.5), 40%.

Consider `C[n+]1ccc(-c2cc[n+](C)cc2)cc1` [b3.4, paraquat, reference compound], for which the “Herbicidal action against ABUTH found” value amounted to 0% in the experiment with ABUTH (21 days, application rate g/ha: I.7 0.98, b3.4 31.25) and 40% in the experiment with ABUTH (21 days, application rate g/ha: I.7 1.95, b3.4 62.5).

For `CCOC(=O)/C(Cl)=C/c1cc(N2C(=O)C3=C(CCCC3)C2=O)ccc1Cl` [b4.1, cinidon-ethyl, reference compound], the “Herbicidal action against POLPE found” value with POLPE (application rate g/ha: I.1 0.49, b4.1 0.98) is recorded as 40%; in the experiment on POLPE (application rate g/ha: I.1 0.98, b4.1 1.95), 50%.

Consider `O=C(Nc1ccc(F)cc1)c1cccc(Oc2cccc(C(F)(F)F)c2)n1` [b5.1, picolinafen, reference compound], for which the “Herbicidal action against POLPE found” value in the experiment with POLPE (application rate g/ha: I.8 0.98, b5.1 7.81) worked out at 30%; in the experiment on POLPE (application rate g/ha: I.8 1.95, b5.1 15.63), 40%. The “Herbicidal action against BRAPL found” value is listed as 20% in the experiment on BRAPL (21 days, application rate g/ha: I.8 0.98, b5.1 7.81) and 20% in the experiment on BRAPL (21 days, application rate g/ha: I.8 1.95, b5.1 15.63).

Turning to `CS(=O)(=O)c1ccc(C(=O)C2C(=O)CCCC2=O)c(Cl)c1` [b5.2, sulcotrione, reference compound], the “Herbicidal action against ECHCG found” value in the experiment on ECHCG (21 days, application rate g/ha: I.8 1.95, b5.2 31.25) amounted to 60%; in the experiment on ECHCG (21 days, application rate g/ha: I.8 3.91, b5.2 62.5), 75%.

In the case of `CC(C)N.O=C(O)CNCP(=O)(O)O` [b6.1, glyphosate isopropylammonium salt, reference compound], the “Herbicidal action against AVEFA found” value is 0% with AVEFA (21 days, application rate g/ha: I.7 1.95, b6.1 125) and 0% in the experiment with AVEFA (21 days, application rate g/ha: I.7 3.91, b6.1 250).

On to `CP(=O)(O)CCC(N)C(=O)O` (stereo not drawn) [b7.1, glufosinate ammonium salt, reference compound], for which the “Herbicidal action against POLPE found” value turned out to be 0% in the experiment with POLPE (application rate g/ha: I.7 1.95, b7.1 250) and 30% in the experiment with POLPE (application rate g/ha: I.7 3.91, b7.1 500). Further, the “Herbicidal action against AVEFA found” value in the experiment on AVEFA (21 days, application rate g/ha: I.7 1.95, b7.1 250) worked out at 0%; in the experiment on AVEFA (21 days, application rate g/ha: I.7 3.91, b7.1 500), 20%.

Turning to `CCC(CC)Nc1c([N+](=O)[O-])cc(C)c(C)c1[N+](=O)[O-]` [b9.1, pendimethalin, reference compound], the “Herbicidal action against AVEFA found” value is 10% in the experiment on AVEFA (21 days, application rate g/ha: I.1 0.98, b9.1 125) and 20% in the experiment with AVEFA (21 days, application rate g/ha: I.1 1.95, b9.1 250).

For the compound `COC[C@H](C)N(C(=O)CCl)c1c(C)csc1C` [b10.1, dimethenamid-P, reference compound], the “Herbicidal action against BIDPI found” value with BIDPI (setting [3]) and in the experiment on BIDPI (setting [4]) was 25% throughout. For the same compound, the “Herbicidal action against AVEFA found” value in the experiment on AVEFA (setting [3]) and in the experiment with AVEFA (setting [4]) was 30% in each case.

For the compound `CCOCN(C(=O)CCl)c1c(C)cccc1CC` [b10.2, acetochlor, reference compound], the “Herbicidal action against BIDPI found” value came to 30% with BIDPI (21 days, application rate g/ha: I.14 1.95, b10.2 250) and 70% with BIDPI (21 days, application rate g/ha: I.14 3.91, b10.2 500).

`CCc1cccc(C)c1N(C(=O)CCl)[C@@H](C)COC` [b10.3, S-metolachlor, reference compound]: the “Herbicidal action against GALAP found” value with GALAP (setting [5]) came to 0%; in the experiment with GALAP (setting [6]), 25%. For the same compound, the results for the “Herbicidal action against SETFA found” value in the experiment with SETFA (setting [5]) and in the experiment with SETFA (setting [6]) were 30% and 60%, respectively.

With `CCC(C)(CC)c1cc(NC(=O)c2c(OC)cccc2OC)on1` [b11.1, isoxaben, reference compound], the “Herbicidal action against GALAP found” value in the experiment with GALAP (setting [7]) and with GALAP (setting [8]) was 0% in each case. The “Herbicidal action against SETFA found” value with SETFA (setting [7]) turned out to be 0%; in the experiment on SETFA (setting [8]), 10%.

As to `COc1c(Cl)ccc(Cl)c1C(=O)O` [b13.2, dicamba, reference compound], the “Herbicidal action against ECHCG found” value with ECHCG (I.14 1.95 g/ha and/or b13.2 125 g/ha) was 0%; in the experiment on ECHCG (I.14 3.91 g/ha and/or b13.2 250 g/ha), 30%.

With `CNC.O=C(O)COc1ccc(Cl)cc1Cl` [b13.3, 2,4-D dimethylammonium salt, reference compound], the “Herbicidal action against ABUTH found” value in the experiment on ABUTH (setting [9]) stood at 25%; in the experiment on ABUTH (setting [10]) it was 65%. Besides, the “Herbicidal action against BRAPL found” value in the experiment with BRAPL (setting [9]) was found to be 20%; in the experiment with BRAPL (setting [10]) it was 50%.
